The target of one assay is T1, GLUT1 (Homo sapiens, UniProt P11166).
T1 sequence (P11166 1-492): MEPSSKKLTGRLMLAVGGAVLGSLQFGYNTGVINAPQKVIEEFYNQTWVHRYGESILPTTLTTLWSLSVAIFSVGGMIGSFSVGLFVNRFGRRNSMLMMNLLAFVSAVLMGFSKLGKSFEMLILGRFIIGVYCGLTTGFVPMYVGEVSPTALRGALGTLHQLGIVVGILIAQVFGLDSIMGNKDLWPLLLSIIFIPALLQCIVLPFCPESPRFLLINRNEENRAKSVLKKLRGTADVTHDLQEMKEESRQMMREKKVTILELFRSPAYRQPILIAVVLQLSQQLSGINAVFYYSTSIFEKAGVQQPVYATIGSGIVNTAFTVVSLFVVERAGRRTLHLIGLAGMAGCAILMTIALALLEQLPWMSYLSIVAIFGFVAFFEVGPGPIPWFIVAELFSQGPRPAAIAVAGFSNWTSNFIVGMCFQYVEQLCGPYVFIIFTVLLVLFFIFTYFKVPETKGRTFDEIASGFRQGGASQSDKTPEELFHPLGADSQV
Put plainly: Indirect measurement of GLUT1 activity by quantification of intracellular ATP levels (glucose induced ATP increase). It is filed as cell-based. Set-up: endogenous in cells; host or cells: DLD1 or CHO-K1. The note with it: DLD1 cells; 0.1 mM glucose, 1 μM Rotenone, 15 min; CellTiter-Glo ATP readout; IC50 values standardized to cytochalasin B IC50 values; read-out: IC50 regarding glucose induced ATP increase (GLUT1 inhibition). The method in brief:
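DLD1 or CHO-K1 cells were starved overnight in glucose-free medium with 1% FCS, then combined with an oxidative phosphorylation inhibitor. GLUT1 activity was read as glucose-induced ATP increase, GLUT2 as fructose-induced. Intracellular ATP was quantified by CellTiter-Glo luminescence.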
`Cc1ccc2nc(C(N)=O)cc(C(=O)Nc3c(C(F)(F)F)nn(Cc4ccc(C#N)cc4)c3C)c2c1` [Example 366, N^4-[1-(4-cyanobenzyl)-5-methyl-3-(trifluoromethyl)-1H-pyrazol-4-yl]-6-methylquinoline-2,4-dicarboxamide]: the IC50 is 7 nM.

Staying with this assay, now noted: read-out: IC50 regarding glucose induced ATP increase (GLUT1 inhibition).
Consider `Cc1nn(Cc2ccc(C#N)cn2)c(C)c1NC(=O)c1cc(C(F)(F)F)nc2ccc(Br)cc12` [Example 353, 6-bromo-N-{1-[(5-cyanopyridin-2-yl)methyl]-3,5-dimethyl-1H-pyrazol-4-yl}-2-(trifluoromethyl)quinoline-4-carboxamide], for which the 50% inhibitory concentration (IC50) was 2.3 nM.
For the compound `Cc1nn(Cc2ccc(C#N)cn2)c(C)c1NC(=O)c1cc(C(N)=O)nc2cc(F)c(F)cc12` [Example 354, N^4-{1-[(5-cyanopyridin-2-yl)methyl]-3,5-dimethyl-1H-pyrazol-4-yl}-6,7-difluoroquinoline-2,4-dicarboxamide], the IC50 turned out to be 3.6 nM.
With `Cc1nn(Cc2ccc(C#N)cn2)c(C)c1NC(=O)c1cc(C(N)=O)nc2ccccc12` [Example 355, N^4-{1-[(5-cyanopyridin-2-yl)methyl]-3,5-dimethyl-1H-pyrazol-4-yl}quinoline-2,4-dicarboxamide], the 50% inhibitory concentration (IC50) was 3.9 nM.
With `Cc1nn(Cc2ccc(C#N)cn2)c(C)c1NC(=O)c1cc(C(N)=O)nc2cc(F)ccc12` [Example 356, N^4-{1-[(5-cyanopyridin-2-yl)methyl]-3,5-dimethyl-1H-pyrazol-4-yl}-7-fluoroquinoline-2,4-dicarboxamide], the IC50 turned out to be 9.3 nM.
As to `COc1cc(C(=O)Nc2c(C)nn(Cc3ccc(C#N)cn3)c2C)c2ccccc2n1` [Example 357, N-{1-[(5-cyanopyridin-2-yl)methyl]-3,5-dimethyl-1H-pyrazol-4-yl}-2-methoxyquinoline-4-carboxamide], the half-maximal inhibitory concentration (IC50) amounted to 28.8 nM.
Turning to `Cc1c(NC(=O)c2cc(C(N)=O)nc3ccc(Br)cc23)c(C(F)(F)F)nn1Cc1ccc(C#N)cn1` [Example 358, 6-bromo-N^4-{1-[(5-cyanopyridin-2-yl)methyl]-5-methyl-3-(trifluoromethyl)-1H-pyrazol-4-yl}quinoline-2,4-dicarboxamide], the IC50 worked out at 1.2 nM.
For the compound `Cc1c(NC(=O)c2cc(C(N)=O)nc3cc(F)c(Cl)cc23)c(C(F)(F)F)nn1Cc1ccc(C#N)cn1` [Example 359, 6-chloro-N^4-{1-[(5-cyanopyridin-2-yl)methyl]-5-methyl-3-(trifluoromethyl)-1H-pyrazol-4-yl}-7-fluoroquinoline-2,4-dicarboxamide], the half-maximal inhibitory concentration (IC50) is 1.3 nM.
As to `Cc1c(NC(=O)c2cc(C(N)=O)nc3cc(F)ccc23)c(C(F)(F)F)nn1Cc1ccc(C#N)cn1` [Example 360, N^4-{1-[(5-cyanopyridin-2-yl)methyl]-5-methyl-3-(trifluoromethyl)-1H-pyrazol-4-yl}-7-fluoroquinoline-2,4-dicarboxamide], the IC50 was 2 nM.
For `Cc1c(NC(=O)c2cc(C(N)=O)nc3ccccc23)c(C(F)(F)F)nn1Cc1ccc(C#N)cn1` [Example 361, N^4-{1-[(5-cyanopyridin-2-yl)methyl]-5-methyl-3-(trifluoromethyl)-1H-pyrazol-4-yl}quinoline-2,4-dicarboxamide], the 50% inhibitory concentration (IC50) was found to be 4.4 nM.
`Cc1c(NC(=O)c2cc(C(F)(F)F)nc3ccc(Br)cc23)c(C(F)(F)F)nn1Cc1ccc(C#N)cn1` [Example 362, 6-bromo-N-{1-[(5-cyanopyridin-2-yl)methyl]-5-methyl-3-(trifluoromethyl)-1H-pyrazol-4-yl}-2-(trifluoromethyl)quinoline-4-carboxamide]: the IC50 came to 5.5 nM.
For the compound `Cc1c(NC(=O)c2cc(C(N)=O)nc3cccc(F)c23)c(C(F)(F)F)nn1Cc1ccc(C#N)cn1` [Example 363, N^4-{1-[(5-cyanopyridin-2-yl)methyl]-5-methyl-3-(trifluoromethyl)-1H-pyrazol-4-yl}-5-fluoroquinoline-2,4-dicarboxamide], the IC50 came to 6 nM.
For `Cc1c(NC(=O)c2cc(C(N)=O)nc3cc(F)c(F)cc23)c(C(F)(F)F)nn1Cc1ccc(C#N)cn1` [Example 364, N^4-{1-[(5-cyanopyridin-2-yl)methyl]-5-methyl-3-(trifluoromethyl)-1H-pyrazol-4-yl}-6,7-difluoroquinoline-2,4-dicarboxamide], the IC50 is 6.6 nM.
Regarding `COc1cc(C(=O)Nc2c(C(F)(F)F)nn(Cc3ccc(C#N)cn3)c2C)c2ccccc2n1` [Example 365, N-{1-[(5-cyanopyridin-2-yl)methyl]-5-methyl-3-(trifluoromethyl)-1H-pyrazol-4-yl}-2-methoxyquinoline-4-carboxamide], the IC50 amounted to 26.6 nM.
Regarding `COC(=O)c1ccc(Cn2nc(C(F)(F)F)c(NC(=O)c3cc(C(N)=O)nc4cc(F)ccc34)c2C)cc1` [Example 367, methyl 4-{[4-{[(2-carbamoyl-7-fluoroquinolin-4-yl)carbonyl]amino}-5-methyl-3-(trifluoromethyl)-1H-pyrazol-1-yl]methyl}benzoate], the IC50 turned out to be 2.3 nM.
In the case of `Cc1c(NC(=O)c2cc(C(N)=O)nc3cc(F)ccc23)c(C(F)(F)F)nn1Cc1ccc(C(=O)O)cc1` [Example 368, 4-{[4-{[(2-carbamoyl-7-fluoroquinolin-4-yl)carbonyl]amino}-5-methyl-3-(trifluoromethyl)-1H-pyrazol-1-yl]methyl}benzoic acid], the concentration for half-maximal inhibition (IC50) is 418 nM.
Same read-out and setting: the figure for `Cc1c(NC(=O)c2cc(C(N)=O)nc3cc(F)ccc23)c(C(F)(F)F)nn1Cc1ccc(C(N)=O)cc1` [Example 369, N^4-[1-(4-carbamoylbenzyl)-5-methyl-3-(trifluoromethyl)-1H-pyrazol-4-yl]-7-fluoroquinoline-2,4-dicarboxamide] is 12.4 nM; for `CNC(=O)c1ccc(Cn2nc(C(F)(F)F)c(NC(=O)c3cc(C(N)=O)nc4cc(F)ccc34)c2C)cc1` [Example 370, 7-fluoro-N^4-{5-methyl-1-[4-(methylcarbamoyl)benzyl]-3-(trifluoromethyl)-1H-pyrazol-4-yl}quinoline-2,4-dicarboxamide] it is 12.8 nM; for `Cc1c(NC(=O)c2cc(C(N)=O)nc3cc(F)ccc23)c(C(F)(F)F)nn1Cc1ccc(C(=O)N(C)C)cc1` [Example 371, N^4-{1-[4-(dimethylcarbamoyl)benzyl]-5-methyl-3-(trifluoromethyl)-H-pyrazol-4-yl}-7-fluoroquinoline-2,4-dicarboxamide] it is 243 nM.
The same measure, in the same setting: the value for `Cc1c(NC(=O)c2cc(C(N)=O)nc3cc(F)ccc23)c(C(F)(F)F)nn1Cc1ccc(C(=O)N2CCC2)cc1` [Example 372, N^4-{1-[4-(azetidin-1-ylcarbonyl)benzyl]-5-methyl-3-(trifluoromethyl)-1H-pyrazol-4-yl}-7-fluoroquinoline-2,4-dicarboxamide] was 20 nM.
For the compound `COCCNC(=O)c1ccc(Cn2nc(C(F)(F)F)c(NC(=O)c3cc(C(N)=O)nc4cc(F)ccc34)c2C)cc1` [Example 373, 7-fluoro-N^4-[1-{4-[(2-methoxyethyl)carbamoyl]benzyl}-5-methyl-3-(trifluoromethyl)-1H-pyrazol-4-yl]quinoline-2,4-dicarboxamide], the IC50 came to 17.5 nM.
In the case of `Cc1c(NC(=O)c2cc(C(N)=O)nc3cc(F)ccc23)c(C(F)(F)F)nn1Cc1ccc(C(=O)NCCN(C)C)cc1` [Example 374, N^4-[1-(4-{[2-(dimethylamino)ethyl]carbamoyl}benzyl)-5-methyl-3-(trifluoromethyl)-1H-pyrazol-4-yl]-7-fluoroquinoline-2,4-dicarboxamide], the half-inhibitory concentration (IC50) was 895 nM.
As for `Cc1c(NC(=O)c2cc(C(N)=O)nc3cc(F)ccc23)c(C(F)(F)F)nn1Cc1ccc(C(=O)NCCO)cc1` [Example 375, 7-fluoro-N^4-[1-{4-[(2-hydroxyethyl)carbamoyl]benzyl}-5-methyl-3-(trifluoromethyl)-1H-pyrazol-4-yl]quinoline-2,4-dicarboxamide], the IC50 came out at 123 nM.
For the compound `Cc1nn(Cc2ccc(C#N)cc2)c(C)c1NC(=O)c1cc(Br)nc2ccccc12` [Example 380, 2-bromo-N-[1-(4-cyanobenzyl)-3,5-dimethyl-1H-pyrazol-4-yl]quinoline-4-carboxamide], the IC50 turned out to be 45.9 nM.
As to `CSc1cc(C(=O)Nc2c(C)nn(Cc3ccc(C#N)cc3)c2C)c2ccccc2n1` [Example 381, N-[1-(4-cyanobenzyl)-3,5-dimethyl-1H-pyrazol-4-yl]-2-(methylsulfanyl)quinoline-4-carboxamide], the half-maximal inhibitory concentration (IC50) is 9 nM.
On to `CSc1cc(C(=O)Nc2c(C(F)(F)F)nn(Cc3ccc(C#N)cc3)c2C)c2ccccc2n1` [Example 382, N-[1-(4-cyanobenzyl)-5-methyl-3-(trifluoromethyl)-1H-pyrazol-4-yl]-2-(methylsulfanyl)quinoline-4-carboxamide], for which the IC50 came to 26.1 nM.
Take `Cc1c(NC(=O)c2cc(S(C)(=O)=O)nc3ccccc23)c(C(F)(F)F)nn1Cc1ccc(C#N)cc1` [Example 384, N-[1-(4-cyanobenzyl)-5-methyl-3-(trifluoromethyl)-1H-pyrazol-4-yl]-2-(methylsulfonyl)quinoline-4-carboxamide]: the half-inhibitory concentration (IC50) stood at 3.6 nM.

A word on the IC50: it is the point on the concentration scale where inhibition reaches its midpoint.

The record behind these values is patent publication US20170037028A1 (BAYER PHARMA AKTIENGESELLSCHAFT, priority 2013, published 2017).
